Square brackets hold non-standard residues; d marks the D form. Ends that are not written are not given here. Peptide text beside a SMILES is read from it. * marks the point of attachment. His(Trt) = N[C@@H](Cc1cn(C(c2ccccc2)(c2ccccc2)c2ccccc2)cn1)C(=O)O; His(τ-CHPh2) = N[C@@H](Cc1cn(C(c2ccccc2)c2ccccc2)cn1)C(=O)O; Biotin = O=C1N[C@H]2[C@H](CS[C@H]2CCCCC(=O)*)N1; dPhe(4-CF3) = N[C@H](Cc1ccc(C(F)(F)F)cc1)C(=O)O; Tyr(3-Cl) = N[C@@H](Cc1ccc(O)c(Cl)c1)C(=O)O; sY = N[C@@H](Cc1ccc(OS(=O)(=O)O)cc1)C(=O)O; Tyr(3-NH2) = Nc1cc(C[C@H](N)C(=O)O)ccc1O; dPhe(4-Me) = Cc1ccc(C[C@@H](N)C(=O)O)cc1; Phe(4-Me) = Cc1ccc(C[C@H](N)C(=O)O)cc1; Octanoyl = CCCCCCCC(=O)*
Biological target: T1, GPR39 (Homo sapiens, UniProt O43194)
T1 sequence (O43194 1-453): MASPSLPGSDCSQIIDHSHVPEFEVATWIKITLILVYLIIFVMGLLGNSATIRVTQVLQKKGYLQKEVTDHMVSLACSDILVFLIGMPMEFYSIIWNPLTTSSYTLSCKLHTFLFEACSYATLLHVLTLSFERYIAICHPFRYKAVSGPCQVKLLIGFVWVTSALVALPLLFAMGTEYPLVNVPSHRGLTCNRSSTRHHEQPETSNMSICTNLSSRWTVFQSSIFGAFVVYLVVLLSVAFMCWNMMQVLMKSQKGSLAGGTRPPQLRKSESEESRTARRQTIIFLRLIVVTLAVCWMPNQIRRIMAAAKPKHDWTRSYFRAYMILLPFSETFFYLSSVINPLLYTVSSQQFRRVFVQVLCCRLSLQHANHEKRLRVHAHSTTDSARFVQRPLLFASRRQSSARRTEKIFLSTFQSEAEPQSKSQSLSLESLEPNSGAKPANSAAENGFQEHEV
Assay: luciferase assay system (SRE luciferase reporter gene, CV-1 cells expressing GPR39)
Format: cell-based
Parameters: expressed in transfected cells; host or cells: CV-1 fibroblast cell line (Korea Cell Line Bank), adenoviral transduction at 50 MOI

Row | Compound | ECmax (−fold induction over basal) | EC50 (CV-1 cells, GPR39 and SRE luciferase adenovirus, 6 hours treatment) | activity level for GPR39 (in words) (comment on Table 3)
1 | CCCCCCCC(=O)NCCCC[C@H](NC(=O)[C@@H](N)Cc1cn(C(c2ccccc2)c2ccccc2)cn1)C(=O)N[C@H](Cc1ccc(C)cc1)C(=O)N[C@@H](Cc1ccc(OS(=O)(=O)O)cc1)C(=O)O [HKFY-35, (S)-2-((R)-2-((S)-2-((S)-2-amino-3-(1-benzhydryl-1H-imidazol-4-yl)propanamido)-6-octanamidohexanamido)-3-(p-tolyl)propanamido)-3-(4-(sulfooxy)phenyl)propanoic acid] (H-[His(τ-CHPh2)]K(Octanoyl)[dPhe(4-Me)][sY]-OH) | 18.9 ± 0.41 fold induction over basal |  | 
2 | CCCCCCCC(=O)NCCCC[C@H](NC(=O)[C@@H](N)Cc1c[nH]c(-c2ccc(C(C)(C)C)cc2)n1)C(=O)N[C@H](Cc1ccc(C)cc1)C(=O)N[C@@H](Cc1ccc(O)cc1)C(=O)O [HKFY-60, ((R)-2-((S)-2-((S)-2-amino-3-(2-(4-(tert-butyl)phenyl)-1H-imidazol-4-yl)propanamido)-6-octanamidohexanamido)-3-(p-tolyl)propanoyl)-L-tyrosine] | 28.2 ± 2.5 fold induction over basal |  | 
3 | N2-(Nt-(naphthalen-1-ylmethyl)-L-histidyl)-N6-octanoyl-L-lysyl-L-phenylalanyl-L-tyrosine (H(naphthalen‑1‑ylmethyl)K(Octanoyl)FY-OH) [HKFY-10] | 14 ± 2.12 fold induction over basal | 46.5 ± 1.1 µM | 
4 | CCCCCCCC(=O)NCCCC[C@H](NC(=O)[C@@H](N)Cc1cn(-c2ccccc2)c(-c2ccccc2)n1)C(=O)N[C@H](Cc1ccc(C)cc1)C(=O)N[C@@H](Cc1ccc(O)cc1)C(=O)O [HKFY-59, ((R)-2-((S)-2-((S)-2-amino-3-(1,2-diphenyl-1H-imidazol-4-yl)propanamido)-6-octanamidohexanamido)-3-(p-tolyl)propanoyl)-L-tyrosine] | 6.76 ± 2.2 fold induction over basal |  | 
5 | CCCCCCCC(=O)NCCCC[C@H](NC(=O)[C@@H](N)Cc1cn(CCC(c2ccccc2)c2ccccc2)cn1)C(=O)N[C@@H](Cc1ccccc1)C(=O)N[C@@H](Cc1ccc(O)cc1)C(=O)O [HKFY-17] | 20 ± 0.57 fold induction over basal |  | 
6 | CCCCCCCC(=O)NCCCC[C@H](NC(=O)[C@@H](N)Cc1cn(-c2ccccc2)cn1)C(=O)N[C@H](Cc1ccc(C)cc1)C(=O)N[C@@H](Cc1ccc(O)cc1)C(=O)O [HKFY-58, ((R)-2-((S)-2-((S)-2-amino-3-(1-phenyl-1H-imidazol-4-yl)propanamido)-6-octanamidohexanamido)-3-(p-tolyl)propanoyl)-L-tyrosine] | 9.12 ± 2.1 fold induction over basal |  | 
7 | C[C@H](NC(=O)[C@H](CCC(N)=O)NC(=O)[C@H](CCC(N)=O)NC(=O)[C@H](CC(=O)O)NC(=O)[C@H](Cc1ccc(O)cc1)NC(=O)[C@H](Cc1ccccc1)NC(=O)[C@@H](N)Cc1cn(C(c2ccccc2)(c2ccccc2)c2ccccc2)cn1)C(=O)N[C@@H](CCCNC(=N)N)C(=O)N[C@@H](Cc1ccccc1)C(N)=O [HKFY-52, (6S,9S,12S,15S,18S)-1-amino-6-(((S)-1-amino-1-oxo-3-phenylpropan-2-yl)carbamoyl)-18-((S)-2-((S)-2-((S)-2-amino-3-(1-trityl-1H-imidazol-4-yl)propanamido)-3-phenylpropanamido)-3-(4-hydroxyphenyl)propanamido)-12,15-bis(3-amino-3-oxopropyl)-1-imino-9-methyl-8,11,14,17-tetraoxo-2,7,10,13,16-pentaazaicosan-20-oic acid] (H-[His(Trt)]FYDQQARF-NH2) | 15.5 ± 2.2 fold induction over basal |  | 
8 | CCCCCCCC(=O)NCCCC[C@H](NC(=O)[C@H](CO)NC(=O)CNC(=O)[C@@H](N)Cc1cn(C(c2ccccc2)(c2ccccc2)c2ccccc2)cn1)C(=O)N[C@@H](Cc1ccccc1)C(=O)N[C@@H](Cc1ccc(O)cc1)C(=O)O [HKFY-53, N6-octanoyl-N2-(Nt-trityl-L-histidylglycyl-L-seryl)-L-lysyl-L-phenylalanyl-L-tyrosine] (H-[His(Trt)]GSK(Octanoyl)FY-OH) | 8 ± 2.12 fold induction over basal |  | 
9 | CCCCCCCC(=O)NCCCC[C@H](N)C(=O)N[C@@H](Cc1ccccc1)C(=O)N[C@@H](Cc1ccc(O)cc1)C(=O)O [HKFY-54, N6-octanoyl-L-lysyl-L-phenylalanyl-L-tyrosine] (H-Lys(Octanoyl)-Phe-Tyr-OH) | 7.8 ± 2.5 fold induction over basal |  | 
10 | CCCCCCCC(=O)NCCCC[C@H](NC(=O)[C@@H](N)Cc1cn(CC2c3ccccc3-c3ccccc32)cn1)C(=O)N[C@@H](Cc1ccccc1)C(=O)N[C@@H](Cc1ccc(O)cc1)C(=O)O [HKFY-18] | 10 ± 1.48 fold induction over basal |  | 
11 | CCCCCCCC(=O)NCCCC[C@H](NC(=O)[C@@H](N)Cc1cn(C(c2ccccc2)(c2ccccc2)c2ccccc2)cn1)C(=O)N[C@@H](CC(C)C)C(=O)N[C@@H](Cc1ccc(O)cc1)C(=O)O [HKFY-51, N6-octanoyl-N2-(Nt-trityl-L-histidyl)-L-lysyl-L-leucyl-L-tyrosine] (H-[His(Trt)]K(Octanoyl)LY-OH) | 14.4 ± 1.9 fold induction over basal |  | 

The next lines start with results.

Row | ECmax (−fold induction over basal) | EC50 (CV-1 cells, GPR39 and SRE luciferase adenovirus, 6 hours treatment) | Compound | activity level for GPR39 (in words) (comment on Table 3)
12 | 10.1 ± 1.6 fold induction over basal |  | CCCCCCCC(=O)NCCCC[C@H](NC(=O)[C@@H](N)Cc1cn(C(c2ccccc2)c2ccccc2)cn1)C(=O)N[C@H](Cc1ccc(C)cc1)C(=O)N[C@@H](Cc1ccc(O)c(N)c1)C(=O)O [HKFY-70, (S)-2-((R)-2-((S)-2-((S)-2-amino-3-(1-benzhydryl-1H-imidazol-4-yl)propanamido)-6-octanamidohexanamido)-3-(p-tolyl)propanamido)-3-(3-amino-4-hydroxyphenyl)propanoic acid] (H-[His(τ-CHPh2)]K(Octanoyl)[dPhe(4-Me)][Tyr(3-NH2)]-OH) | 
13 | 10.2 ± 1.51 fold induction over basal |  | CCCCCCCC(=O)NCCCC[C@H](NC(=O)[C@@H](N)Cc1cn(C(c2ccccc2)c2ccccc2)cn1)C(=O)N[C@H](Cc1ccc(C)cc1)C(=O)N[C@@H](Cc1ccc(O)c(Cl)c1)C(=O)O [HKFY-67, (S)-2-((R)-2-((S)-2-((S)-2-amino-3-(1-benzhydryl-1H-imidazol-4-yl)propanamido)-6-octanamidohexanamido)-3-(p-tolyl)propanamido)-3-(3-chloro-4-hydroxyphenyl)propanoic acid] (H-[His(τ-CHPh2)]K(Octanoyl)[dPhe(4-Me)][Tyr(3-Cl)]-OH) | 
14 | 10.4 ± 1.12 fold induction over basal |  | CCCCCCCC(=O)NCCCC[C@H](NC(=O)[C@H](Cc1cn(C(c2ccccc2)c2ccccc2)cn1)NC(=O)CCCC[C@@H]1SC[C@@H]2NC(=O)N[C@@H]21)C(=O)N[C@@H](Cc1ccc(C)cc1)C(=O)N[C@@H](Cc1ccc(O)cc1)C(=O)O [HKFY-72, ((S)-2-((S)-2-((S)-3-(1-benzhydryl-1H-imidazol-4-yl)-2-(5-((3aS,4S,6aR)-2-oxohexahydro-1H-thieno[3,4-d]imidazol-4-yl)pentanamido)propanamido)-6-octanamidohexanamido)-3-(p-tolyl)propanoyl)-L-tyrosine] (Biotin-[His(τ-CHPh2)]K(Octanoyl)[Phe(4-Me)]Y-OH) | 
15 | 11.6 ± 2.14 fold induction over basal |  | CCCCCCCC(=O)NCCCC[C@H](NC(=O)[C@@H](N)Cc1cn(Cc2ccc(-c3ccccc3-c3nnn[nH]3)cc2)cn1)C(=O)N[C@H](Cc1ccc(C)cc1)C(=O)N[C@@H](Cc1ccc(O)cc1)C(=O)O [HKFY-77, ((R)-2-((S)-2-((S)-3-(1-((2′-(1H-tetrazol-5-yl)-[1,1′-biphenyl]-4-yl)methyl)-1H-imidazol-4-yl)-2-aminopropanamido)-6-octanamidohexanamido)-3-(p-tolyl)propanoyl)-L-tyrosine] | 
16 | 11.2 ± 1.4 fold induction over basal |  | CCCCCCCC(=O)NCCCC[C@H](NC(=O)[C@@H](N)Cc1cn(C(c2ccccc2)c2ccccc2)cn1)C(=O)O [HKFY-79, N2-(Nt-benzhydryl-L-histidyl)-N6-octanoyl-L-lysine] | 
17 | 14.2 ± 3.75 fold induction over basal |  | CCCCCCCC(=O)NCCCC[C@H](NC(=O)[C@@H](N)Cc1cn(C(c2ccccc2)(c2ccccc2)c2ccccc2)cn1)C(=O)N[C@H](Cc1ccc(C(F)(F)F)cc1)C(=O)N[C@@H](Cc1ccc(O)cc1)C(=O)O [HKFY-76, ((R)-2-((S)-2-((S)-2-amino-3-(1-trityl-1H-imidazol-4-yl)propanamido)-6-octanamidohexanamido)-3-(4-(trifluoromethyl)phenyl)propanoyl)-L-tyrosine] (H-[His(Trt)]K(Octanoyl)[dPhe(4-CF3)]Y-OH) | 
18 | 18.3 ± 2.2 fold induction over basal |  | CCCCCCCC(=O)NCCCC[C@H](NC(=O)[C@@H](N)Cc1cn(C(c2ccccc2)c2ccc(O)cc2)cn1)C(=O)N[C@H](Cc1ccc(C)cc1)C(=O)N[C@@H](Cc1ccc(O)cc1)C(=O)O (stereo partly drawn) [HKFY-65, ((2R)-2-((2S)-2-((2S)-2-amino-3-(1-((4-hydroxyphenyl)(phenyl)methyl)-1H-imidazol-4-yl)propanamido)-6-octanamidohexanamido)-3-(p-tolyl)propanoyl)-L-tyrosine] | higher activity level than other HKFY derivatives
